# Source: paper PMC5052595, “Structure-based discovery of potentially active semiochemicals for Cydia pomonella (L.)” (Scientific Reports, 2016)
# Assays:
# CpomPBP1 = test: Competitive binding assay with 1-NPN fluorescence probe; design: species or system Cydia pomonella; details: for Kd: wild type CpomPBP1, 2 μM protein, 2 μM 1-NPN, 50 mM Tris-HCl pH 7.0, read-out: dissociation constant (Kd)
# Experimental: (§1) According to the results of virtual screening and commercial availability of the matched semiochemicals, 8 compounds (including Codlemone) were finally subjected to competitive binding assay by taking 1-NPN as the fluorescence probe. All ligands including 1-NPN were dissolved in ethanol of GC grade. […] The fluorescence was measured on a Hitachi F-4600 spectrofluorimeter with a slit width of 5 nm for excitation and emission. The excitation wavelength was decided to be 337 nm and the fluorescence emissions were recorded from 350 to 500 nm. The in vitro binding assays between CpomPBP2 and small molecule compounds were performed in the same way.
# (§2) It was assumed that CpomPBP1 (MT and WT) was 100% active and the binding between protein and ligand was 1:1 at saturation. To analyze the obtained data and to calculate the Kd of each ligand, Graphpad Prism software (Graphpad software, Inc.) was employed.
# CpomPBP2 = CpomPBP2 (Cydia pomonella, UniProt I3ZNT9); test: as above
# Sequence of CpomPBP2 (I3ZNT9 26-169 limits assumed): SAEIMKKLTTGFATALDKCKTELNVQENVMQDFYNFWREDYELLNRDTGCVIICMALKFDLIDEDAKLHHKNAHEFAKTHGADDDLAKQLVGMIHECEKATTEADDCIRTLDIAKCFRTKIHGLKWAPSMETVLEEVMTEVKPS
# Experimental: as §1, §2
# CpomPBP1I52A = test: Competitive binding assay, mutant protein; design: species or system Cydia pomonella; details: I52A; RTln(Kd-MT/Kd-WT)
# Experimental: as §1
# (§3) To test binding ability changes of CpomPBP1 caused by the mutation of each target site, the in vitro binding assays between CpomPBP1 proteins (MT and WT CpomPBP1) and ETrME was implemented according to the part of competitive binding assay.
# as §2
# (§4) The experimental binding free energy of the complexes formed by ETrME and each mutant was calculated by the equation (1): […]
# (§5) In this equation, Kd-MT and Kd-WT are the dissociation constants for mutant and wild CpomPBP1 respectively. R stands for the ideal gas constant and T means the temperature in Kelvin.
# CpomPBP1I94A = test: Competitive binding assay, mutant protein; design: species or system Cydia pomonella; details: I94A; RTln(Kd-MT/Kd-WT)
# Experimental: as §1, §3, §2, §4, §5
# CpomPBP1F36A = test: Competitive binding assay, mutant protein; design: species or system Cydia pomonella; details: F36A; RTln(Kd-MT/Kd-WT)
# Experimental: as §1, §3, §2, §4, §5
# CpomPBP1W37A = test: Competitive binding assay, mutant protein; design: species or system Cydia pomonella; details: W37A; RTln(Kd-MT/Kd-WT)
# Experimental: as §1, §3, §2, §4, §5
# CpomPBP1F12A = test: Competitive binding assay, mutant protein; design: species or system Cydia pomonella; details: F12A; RTln(Kd-MT/Kd-WT)
# Experimental: as §1, §3, §2, §4, §5
compound,measurement,setting,value
"CCCCC/C=C\C/C=C\C/C=C\CCCCCCC(=O)O [Z-8,11,14-Eicosatrienoic acid]",Kd,CpomPBP1,12.8 µM
CCCCC/C=C\C/C=C\CCCCCCCC(=O)O [Linoleic acid],binding to CpomPBP1 (in words),"CpomPBP1; titration 0 to 64 μM ligand, 1-NPN probe",no binding
CCC=CCC=CCC=CCC=CC=CC(O)CCCC(=O)O (racemic) [(±)5-HEPE],Kd,CpomPBP1,8.23 µM
"C/C=C/C=C/CCCCCCCO [Codlemone, reference compound]",Kd,CpomPBP1,3.78 µM
same,binding to CpomPBP2 (in words),"CpomPBP2; titration course, 1-NPN probe",no binding
CCC=CCC=CCC=CCCCCCCCCCC(=O)OC [ETrME],Kd,CpomPBP1,3.14 µM
same,ΔΔGbind-exp,CpomPBP1I52A,1.86 kcal/mol
same,ΔΔGbind-exp,CpomPBP1I94A,1.4 kcal/mol
same,ΔΔGbind-exp,CpomPBP1F36A,3.25 kcal/mol
same,ΔΔGbind-exp,CpomPBP1W37A,3.54 kcal/mol
same,ΔΔGbind-exp,CpomPBP1F12A,2.80 kcal/mol
same,Kd,"CpomPBP2; CpomPBP2, 1-NPN competitive binding, read-out: dissociation constant (Kd)",8.62 µM
